In patent publication US8846627B2, “Method for treatment of malaria” (The Second Military Medical University, priority 2009, dated 2014) one finds IC50 and inhibition data, which are given here for one molecule.

Assay [1] deals with chloroquine-resistant (W2) strain of P. falciparum. The assay is described as follows: In vitro anti-malarial activity assay (plasmodial LDH activity), W2 clone. As to conditions: Plasmodium falciparum, W2; 72 h incubation, LDH readout; read-out: P. falciparum (W2 Clone) IC50. Format: cell-based. The method, then: (§1) In vitro anti-malarial activity of the representative compounds was determined against chloroquine sensitive (D6) and chloroquine-resistant (W2) strains of P. falciparum.
(§2) The anti-malarial activity was determined by measuring plasmodial LDH activity as described earlier (Jain, M.; Khan, S. I.; Tekwani, B. L.; Jacob, M. R.; Singh, S.; Singh, P. P.; Jain, R. Synthesis, anti-malarial, antileishmanial, and antimicrobial activities of some 8-quinolinamine analogues. Bioorg. Med. Chem. 2005, 13, 4458-4466). A suspension of red blood cells infected with D6 or W2 strains of P. falciparum (200 with 2% parasitemia and 2% hematocrit in RPMI 1640 medium supplemented with 10% human serum and 60 µg/mL Amikacin) was added to the wells of a 96-well plate containing 10 μL of serially diluted test samples. The plate was flushed with a gas mixture of 90% N2, 5% O2, and 5% CO2 and incubated at 37° C. for 72 h in a modular incubation chamber (Billups-Rothenberg, Calif.). Parasitic LDH activity was determined by using Malstat™ reagent (Flow Inc., Portland, Oreg.) according to the procedure of Makler and Hinrichs (M. T. Makler and D. J. Hinrichs, Measurement of the lactate dehydrogenase activity of Plasmodium falciparum as an assessment of parasitemia. J. Am. J. Trop. Med. Hyg. 1993, 48(2):205-210). Briefly, 20 μl, of the incubation mixture was mixed with 100 μL of the Malstat™ reagent and incubated at room temperature for 30 min Twenty microliters of a 1:1 mixture of NBT/PES (Sigma, St. Louis, Mo.) was then added and the plate was further incubated in the dark for 1 h. The reaction was then stopped by the addition of 100 μL of a 5% acetic acid solution. The plate was read at 650 nm. Artemisinin and chloroquine were included in each assay as the drug controls. IC50 values were computed from the dose-response curves. To determine the selectivity index of anti-malarial activity of compounds, their cytotoxicity in vitro to mammalian cells was also determined. The assay was performed in 96-well tissue culture-treated plates as described earlier (J. Mustafa, S. I. Khan, G. Ma, L. A. Walker and I. A. Khan, Synthesis and Anticancer Activities of Fatty Acid Analogs of Podophyllotoxin. Lipids. 2004, 39(2):167-172). Vero cells (monkey kidney fibroblasts) were seeded to the wells of 96-well plate at a density of 25,000 cells/well and incubated for 24 h. Samples at different concentrations were added and plates were again incubated for 48 h. The number of viable cells was determined by Neutral Red assay. IC50 values were obtained from dose-response curves. Doxorubicin was used as a positive control.

The test system of assay [2] is chloroquine sensitive (D6) strain of P. falciparum. In words: In vitro anti-malarial activity assay (plasmodial LDH activity), D6 clone. In kind it is cell-based. As to conditions: Plasmodium falciparum, D6; 72 h incubation, LDH readout; read-out: P. falciparum (D6 Clone) IC50. As for the experimental part:
as §1, §2

The target of assay [3] is T1, Falcipain-2 protease (FP-2) (Plasmodium falciparum, UniProt Q8I6U4).
T1 construct: The falcipain-2 fragment was amplified by the polymerase chain reaction (PCR); His6 (N-terminal MRGS-His6 supplied by the pQE-30 vector; own knowledge of the vector, consistent with the Ni2+-NTA purification) (N); made in house; host or cells: E. coli M15
T1 sequence (Q8I6U4 244-484): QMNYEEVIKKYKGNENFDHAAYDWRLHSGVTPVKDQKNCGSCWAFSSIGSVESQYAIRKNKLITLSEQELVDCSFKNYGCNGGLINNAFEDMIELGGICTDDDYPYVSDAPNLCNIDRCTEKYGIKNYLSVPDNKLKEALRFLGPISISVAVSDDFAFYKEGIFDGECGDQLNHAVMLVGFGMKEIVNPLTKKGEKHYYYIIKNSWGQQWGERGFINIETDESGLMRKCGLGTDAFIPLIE
The assay is described as follows: Falcipain-2 protease inhibition assay (fluorescence reaction rate). Format: biochemical. As for the experimental part:
(1) Expression and Purification of Falcipain-2 and Refolding of FP-2 Inclusion Bodies Protein
(2) The Determination of the Invention Compounds' Inhibitory Activity Against FP-2
FP-2 protein and test compounds dissolved in DMSO (prepared from EXAMPLES 1-4) were added to 197 μL, buffer, containing 100 mM NaOAc, 10 mM DTT, pH 5.5 (final concentration 10 μg/mL). The test compound were Stenopalustroside A, Stenopalustroside D, Tiliroside, kaempferol 3-O-β-(6″-caffeoylglucoside) and kaempferol 3-(2,4-di-E-p-coumaroyl-rhamnoside), respectively, which final concentration were 10 μM and 0 μM (as negative control). These compounds were incubated for […] and employed MD SpectraMax M5 Microplate Reader to continuous detect the RFU for 15 min, at excitation 355 nm and emission 460 nm Calculate the reaction rate Km, and obtain percentage inhibitory rate of the test compound at 10 μM by the following equation,
The equation is: (Kmof control group−Kmof experimental group)/Kmof control group×100%
Select […] compounds with over 50% inhibitory rate to detect IC50, and utilize the compound solutions prepared from EXAMPLE 1 to EXAMPLE 4, Stenopalustroside A, tiliroside kaempferol 3-O-β-(6″-caffeoylglucoside), and the experimental methods and system followed as EXAMPLE 6. According to FP-2 activity reaction rate Km with compounds at different concentrations, we can calculate the inhibitory rate of compounds against FP-2 at different concentration. The IC50 value was fitted with utilizing the Sigmoidal Equation by Origin software.

SMILES strings stand for the structures. pIC50: −log10 of the molar value.

The pIC50 is −log10 of the IC50, conventionally taken in molar units. Broadly, the inhibition is the percentage by which the read-out fell short of the control. As for `O=C(/C=C/c1ccc(O)cc1)OC[C@H]1O[C@@H](Oc2c(-c3ccc(O)cc3)oc3cc(O)cc(O)c3c2=O)[C@H](O)[C@@H](O)[C@@H]1O` [Tiliroside], the pIC50 in assay [1] is 3.97; in assay [2] it was 3.91; in assay [3], 4.88. The same molecule displayed an inhibition at 10 µM in assay [3] (10 μM compound, pH 5.5) of 64.4%.
